Measured values taken from patent US12599136B2, “Substituted isophthalic acid diamides and their use as herbicides” (Bayer Aktiengesellschaft, priority 2020, dated 2026).

How the values were obtained:
Assay type in all cases: in vivo
Avena fatua = assay: Pre-emergence herbicidal action against AVEFA; conditions: 320 g/ha; visual score after 3 weeks vs untreated controls
How it was run: (§1)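 Seeds sown in sandy loam, soil-covered; compound sprayed on soil surface pre-emergence. Application: WP/EC, 600–800 l/ha, 0.2% wetting agent. Readout: visual % damage at 3 weeks.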

Veronica persica [1] = assay: Pre-emergence herbicidal action against VERPE; conditions: 320 g/ha
How it was run: as §1

Setaria viridis = assay: Pre-emergence herbicidal action against SETVI; conditions: 320 g/ha
How it was run: as §1

Pharbitis purpurea [2] = assay: Post-emergence herbicidal action against PHBPU; conditions: 80 g/ha, visual assessment about 3 weeks after treatment
How it was run: (§2)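 Percent herbicidal action is rated by eye about 3 weeks after treatment against untreated controls, where 100% means dead plants and 0% means like controls. Plants in sandy loam are sprayed on green parts at the one-leaf stage with aqueous WP or EC preparations at 600 to 800 l/ha plus 0.2% wetting agent.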

Pharbitis purpurea [3] = assay: Pre-emergence herbicidal action against PHBPU; conditions: 320 g/ha; visual score after 3 weeks vs untreated controls
How it was run: as §1

Amaranthus retroflexus [4] = assay: Post-emergence herbicidal action against AMARE; conditions: visual assessment about 3 weeks after treatment
How it was run: as §2

Viola tricolor [5] = assay: Post-emergence herbicidal action against VIOTR; conditions: 80 g/ha
How it was run: as §2

Abutilon theophrasti [6] = assay: Post-emergence herbicidal action against ABUTH
How it was run: as §2

Cyperus esculentus = assay: Pre-emergence herbicidal action against CYPES; conditions: 320 g/ha; visual score after 3 weeks vs untreated controls
How it was run: as §1

Hordeum murinum = assay: Pre-emergence herbicidal action against HORMU; conditions: 320 g/ha; visual score after 3 weeks vs untreated controls
Description: Seeds of monocotyledonous and dicotyledonous weed plants and crop plants are laid out in sandy loam soil in wood-fiber pots and covered with soil. The compounds of the invention, formulated in the form of wettable powders (WP) or as emulsion concentrates (EC), are then applied to the surface of the covering soil in the form of an aqueous suspension or emulsion at a water application rate equivalent to 600 to 800 l/ha, with addition of 0.2% wetting agent. After the treatment, the pots are placed in a greenhouse and kept under good growth conditions for the trial plants. The damage to the test plants is scored visually after a test period of 3 weeks by comparison with untreated controls (herbicidal activity in percent (%): 100% activity=the plants have died, 0% activity=like control plants). […] The tables below illustrate, in an illustrative manner, the post-emergence herbicidal action of the compounds of the invention, the herbicidal activity being stated in percent.

Amaranthus retroflexus [7] = assay: Pre-emergence herbicidal action against AMARE; conditions: visual score after 3 weeks vs untreated controls
How it was run: as §1

Matricaria inodora [8] = assay: Post-emergence herbicidal action against MATIN; conditions: visual assessment about 3 weeks after treatment
How it was run: as §2

Abutilon theophrasti [9] = assay: Pre-emergence herbicidal action against ABUTH; conditions: visual score after 3 weeks vs untreated controls
How it was run: as §1

Veronica persica [10] = assay: Post-emergence herbicidal action against VERPE; conditions: visual assessment about 3 weeks after treatment
How it was run: as §2

Stellaria media [11] = assay: Post-emergence herbicidal action against STEME; conditions: visual assessment about 3 weeks after treatment
How it was run: as §2

Viola tricolor [12] = assay: Pre-emergence herbicidal action against VIOTR
How it was run: as §1

Echinochloa crus-galli [13] = assay: Pre-emergence herbicidal action against ECHCG; conditions: visual score after 3 weeks vs untreated controls
How it was run: as §1

Stellaria media [14] = assay: Pre-emergence herbicidal action against STEME
How it was run: as §1

Echinochloa crus-galli [15] = assay: Post-emergence herbicidal action against ECHCG; conditions: visual assessment about 3 weeks after treatment
How it was run: as §2

Polygonum convolvulus [16] = assay: Pre-emergence herbicidal action against POLCO; conditions: 320 g/ha
How it was run: as §1

Matricaria inodora [17] = assay: Pre-emergence herbicidal action against MATIN; conditions: visual score after 3 weeks vs untreated controls
How it was run: as §1

Alopecurus myosuroides = assay: Pre-emergence herbicidal action against ALOMY; conditions: visual score after 3 weeks vs untreated controls
How it was run: as §1

Polygonum convolvulus [18] = assay: Post-emergence herbicidal action against POLCO; conditions: 80 g/ha, visual assessment about 3 weeks after treatment
Procedure: Seeds of monocotyledonous and dicotyledonous weed and crop plants are laid out in sandy loam soil in wood-fiber pots, covered with soil and cultivated in a greenhouse under good growth conditions. 2 to 3 weeks after sowing, the test plants are treated at the one-leaf stage. The compounds of the invention, formulated in the form of wettable powders (WP) or as emulsion concentrates (EC), are then sprayed onto the green parts of the plants in the form of an aqueous suspension or emulsion at a water application rate equivalent to 600 to 800 l/ha, with addition of 0.2% wetting agent. After the test plants have been left to stand in the greenhouse under optimal growth conditions for about 3 weeks, the action of the preparations is assessed visually in comparison to untreated controls (herbicidal action in percent (%): 100% activity=the plants have died, 0% activity=like control plants). […] The tables below illustrate, in an illustrative manner, the post-emergence herbicidal action of the compounds of the invention, the herbicidal activity being stated in percent.

Cc1ccccc1N(C)C(=O)c1c(Cl)ccc(C(=O)Nc2nnnn2C)c1Cl [Example 1-399]
Pre-emergence action against AVEFA (Avena fatua): 90%
Pre-emergence action against VERPE (Veronica persica [1]): 80%
Pre-emergence action against SETVI (Setaria viridis): 100%
Post-emergence action against PHBPU in % (Pharbitis purpurea [2]): 90%
Pre-emergence action against PHBPU (Pharbitis purpurea [3]): 90%
Post-emergence action against AMARE in % (Amaranthus retroflexus [4]; 5 g/ha): 100%
Post-emergence action against AMARE in % (Amaranthus retroflexus [4]; 20 g/ha): 100%
Post-emergence action against AMARE in % (Amaranthus retroflexus [4]; 80 g/ha): 100%
Post-emergence action against VIOTR in % (Viola tricolor [5]): 100%
Post-emergence action against ABUTH (Abutilon theophrasti [6]; 5 g/ha): 80%
Post-emergence action against ABUTH (Abutilon theophrasti [6]; 20 g/ha): 100%
Post-emergence action against ABUTH (Abutilon theophrasti [6]; 80 g/ha): 100%
Pre-emergence action against CYPES (Cyperus esculentus): 90%
Pre-emergence action against HORMU (Hordeum murinum): 90%
Pre-emergence action against AMARE (Amaranthus retroflexus [7]; 20 g/ha): 90%
Pre-emergence action against AMARE (Amaranthus retroflexus [7]; 80 g/ha): 100%
Pre-emergence action against AMARE (Amaranthus retroflexus [7]; 320 g/ha): 100%
Post-emergence action against MATIN in % (Matricaria inodora [8]; 20 g/ha): 90%
Post-emergence action against MATIN in % (Matricaria inodora [8]; 80 g/ha): 90%
Pre-emergence action against ABUTH (Abutilon theophrasti [9]; 80 g/ha): 100%
Pre-emergence action against ABUTH (Abutilon theophrasti [9]; Dosage column 320 g/ha (heading prints 3200 g/ha)): 100%
Post-emergence action against VERPE in % (Veronica persica [10]; 20 g/ha): 80%
Post-emergence action against VERPE in % (Veronica persica [10]; 80 g/ha): 90%
Post-emergence action against STEME in % (Stellaria media [11]; 5 g/ha): 80%
Post-emergence action against STEME in % (Stellaria media [11]; 20 g/ha): 90%
Post-emergence action against STEME in % (Stellaria media [11]; 80 g/ha): 100%
Pre-emergence action against VIOTR (Viola tricolor [12]; 80 g/ha): 100%
Pre-emergence action against VIOTR (Viola tricolor [12]; 320 g/ha): 100%
Pre-emergence action against ECHCG (Echinochloa crus-galli [13]; 80 g/ha): 100%
Pre-emergence action against ECHCG (Echinochloa crus-galli [13]; 320 g/ha): 100%
Pre-emergence action against STEME (Stellaria media [14]; 20 g/ha): 90%
Pre-emergence action against STEME (Stellaria media [14]; 80 g/ha): 90%
Pre-emergence action against STEME (Stellaria media [14]; 320 g/ha): 100%
Post-emergence action against ECHCG in % (Echinochloa crus-galli [15]; 20 g/ha): 80%
Post-emergence action against ECHCG in % (Echinochloa crus-galli [15]; 80 g/ha): 100%
Pre-emergence action against POLCO (Polygonum convolvulus [16]): 90%
Pre-emergence action against MATIN (Matricaria inodora [17]; 80 g/ha): 90%
Pre-emergence action against MATIN (Matricaria inodora [17]; 320 g/ha): 100%
Pre-emergence action against ALOMY (Alopecurus myosuroides; 80 g/ha): 80%
Pre-emergence action against ALOMY (Alopecurus myosuroides; 320 g/ha): 100%
Post-emergence action against POLCO in % (Polygonum convolvulus [18]): 100%
